Assay results: PMC12332266 (Frontiers in Pharmacology, 2025)
Where two headings read alike, the source gives them in different places. One block for each compound: values may come before it.

What was measured:
[1] = system: hiPSC-CM (iCell Cardiomyocytes^2); conditions: human
Protocol: (§1) To extract total RNA from the culture media, hiPSC-CM were plated on 24-well plates by seeding 275,000 cells per mL per well. hiPSC-CM were maintained for 7 days in 200 µL of iCell^2 Maintenance Medium (iCell^2 MM; FCDI) for the 48-well ePlate and in 1 mL for 24-well plate, before drug treatment. Culture media change was performed every 2 days.
(§2) Stock solutions were diluted 1:1000 in iCell^2 MM before treatment and equilibrated at 37°C. As vehicle control, DMSO 0.1% was added to the media. Drug treatments on biological replicates (n = 3) were refreshed daily, and culture media was collected for further miRNA analysis. After 72 h, cell pellets were collected and stored at −80°C until total RNA extraction.
(§3) hiPSC-CM culture media was collected daily from 24-well plates, and centrifuged (+4°C, 11,000 rpm) for 5 min to remove cellular debris/cells. Total RNA was extracted from 300 µL of supernatant by Trizol/Chloroform phase separation and purification of total RNA by miRNeasy 96 Kit (Qiagen, Hilden, Germany). The spike-in control cel-miR-39 (Qiagen, Hilden, Germany) was used to check the quality of samples and PCR efficiency. DNase treatment (RNase-Free DNase Set (Qiagen, Hilden, Germany)) was applied according to the manufacturer’s instructions. After the RNA extraction, the same RT-qPCR protocol as for hiPSC-CM lysate was followed. Multiple unpaired t-tests were performed to compare delta CT-values (CT-values normalized to the housekeeping miRNAs) of the treatment groups to the DMSO control.
(§4) Analysis of miRNA in the culture media of hiPSC-CM treated with structural cardiotoxicants was performed at 24-, 48- and 72-hour post-treatment. […] The treatment concentrations were selected based on the MEC for CI to ensure that the preliminary evidence of cardiotoxicity in hiPSC-CMs could potentially lead to miRNA release in the culture media.

[2] = system: hiPSC-CM (iCell Cardiomyocytes^2); test: RTCA CardioECR assessment (impedance and electrophysiology parameters)
Method in brief: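 iCell^2 cardiomyocytes on fibronectin-coated ePlates monitored continuously by impedance for cell index, beating rate and amplitude. Field potential duration and spike amplitude were recorded from day 4–6 after monolayer formation. Data were double-normalized to DMSO control and baseline, with variability given as SD.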

[3] = ref extensive literature search, cited from earlier work
[4] = system: hiPSC-CM (iCell Cardiomyocytes^2); test: miRNA in hiPSC-CM culture media by RT-qPCR at 24, 48 and 72 h post-treatment;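 further: medium RNA quantified by RT-qPCR, CT-values normalized to housekeeping miRNAs, compared against DMSO control, doses chosen from the MEC for CI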
Protocol: as §1, §2, §3, §4

[5] = system: hiPSC-CM (iCell Cardiomyocytes^2); test: Intracellular miRNA expression by RT-qPCR in hiPSC-CM pellets after 72-hour treatment; conditions: for fold induction at 0.1 µM / fold induction at 0.3 µM / fold induction at 3 µM / fold induction at 10 µM / fold induction at 0.0003 µM / fold induction at 0.003 µM / fold induction at 0.03 µM: Homo sapiens
Method in brief: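 After 72-hour treatment and RTCA CardioECR assessment, total RNA from hiPSC-CM pellets was reverse transcribed, pre-amplified and quantified by TaqMan RT-qPCR against a 17-miRNA panel. Triplicates were pooled, so no statistical analysis was performed.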

[6] = 72 h, read-out: hsa-miR-7-5p fold change
[7] = 72 h, read-out: hsa-miR-29a-5p fold change
[8] = 72 h, read-out: hsa-miR-126-3p fold change
[9] = 72 h, read-out: hsa-miR-133b fold change
[10] = 72 h, read-out: hsa-miR-146b-5p fold change
[11] = 72 h, read-out: hsa-miR-182-5p fold change
[12] = 72 h, read-out: hsa-miR-185-3p fold change
[13] = 72 h, read-out: hsa-miR-187-3p fold change
[14] = 72 h, read-out: hsa-miR-208b-3p fold change
[15] = 72 h, read-out: hsa-miR-365a-5p fold change
[16] = 72 h, read-out: hsa-miR-96-5p fold change

Structure (SMILES): Cc1[nH]c(=O)c(C#N)cc1-c1ccncc1 [Milrinone]
- miRNAs in culture media of hiPSC-CM, in words [1]: hsa-miR-7-5p and hsa-miR-126-3p, were upregulated after 72-hour exposure
- miRNAs in culture media of hiPSC-CM, in words ([1]; 3 µM): for hsa-miR-126-3p, upregulation was also observed after 24-hour treatment
- Field Potential Duration MEC ([2]; human, 72 h): 0.3 µM
- Spike Amplitude (SA) MEC ([2]; human, 72 h): 0.1 µM
- Cmax total ([3]; Supplementary Table 1): 620 to 1180 nM
- Cmax total ([3]; Table 1): 620 to 1180 nM
- hsa-miR-126-3p fold change, culture media ([4]; 3 µM, 24h): 3.9
- hsa-miR-208b-3p fold change, culture media ([4]; 3 µM, 24h): 6.0
- hsa-miR-[…] change, culture media ([4]; 3 µM, 24h): 3.5
- hsa-miR-133b fold change, culture media ([4]; 3 µM, 48h): 0.8
- hsa-miR-208b-3p fold change, culture media ([4]; 3 µM, 48h): 2.8
- hsa-miR-[…] change, culture media ([4]; 3 µM, 48h): 1.4
- hsa-miR-7-5p fold change, culture media ([4]; 3 µM, 72 h): 9.1
- hsa-miR-126-3p fold change, culture media ([4]; 3 µM, 72 h): 2.5
- hsa-miR-133b fold change, culture media ([4]; 3 µM, 72 h): 2.5
- hsa-miR-208b-3p fold change, culture media ([4]; 3 µM, 72 h): 0.6
- hsa-miR-[…] change, culture media ([4]; 3 µM, 72 h): 4.4
- miRNAs hiPSC-CM pellet, MEC overall [5]: 0.1 µM
- miRNAs upregulated at the MEC overall (hiPSC-CM pellet) [5]: miR-126-3p, miR-133b, miR-146b-5p
- fold induction at 0.1 µM [5, 6]: 1.1
- fold induction at 0.3 µM [5, 6]: 1.1
- fold induction at 3 µM [5, 6]: 0.5
- fold induction at 10 µM [5, 6]: 1.3
- fold induction at 0.1 µM [5, 7]: 0.6
- fold induction at 0.3 µM [5, 7]: 0.02
- fold induction at 10 µM [5, 7]: 0.3
- fold induction at 0.1 µM [5, 8]: 7.7
- fold induction at 0.3 µM [5, 8]: 5.9
- fold induction at 3 µM [5, 8]: 0.4
- fold induction at 10 µM [5, 8]: 1.7
- fold induction at 0.1 µM [5, 9]: 2.2
- fold induction at 0.3 µM [5, 9]: 2.6
- fold induction at 3 µM [5, 9]: 3.5
- fold induction at 10 µM [5, 9]: 2.5
- fold induction at 0.1 µM [5, 10]: 3.6
- fold induction at 0.3 µM [5, 10]: 19
- fold induction at 3 µM [5, 10]: 5
- fold induction at 10 µM [5, 10]: 3
- fold induction at 0.1 µM [5, 11]: 1.9
- fold induction at 0.3 µM [5, 11]: 1.6
- fold induction at 3 µM [5, 11]: 0.9
- fold induction at 10 µM [5, 11]: 1.3
- fold induction at 0.3 µM [5, 12]: 0.2
- fold induction at 3 µM [5, 12]: 16.3
- fold induction at 10 µM [5, 12]: 0.9
- fold induction at 0.3 µM [5, 13]: 3.7
- fold induction at 3 µM [5, 13]: 1.2
- fold induction at 10 µM [5, 13]: 3.3
- fold induction at 0.1 µM [5, 14]: 1.3
- fold induction at 0.3 µM [5, 14]: 1.8
- fold induction at 3 µM [5, 14]: 2.1
- fold induction at 10 µM [5, 14]: 2.4
- fold induction at 0.1 µM [5, 15]: 3.7
- fold induction at 0.3 µM [5, 15]: 4.9
- fold induction at 3 µM [5, 15]: 0.4
- fold induction at 10 µM [5, 15]: 1.1
- hsa-miR-7-5p fold change, intracellular ([5]; human, 72 h, 3 µM): 0.5
- hsa-miR-182-5p fold change, intracellular ([5]; human, 72 h, 3 µM): 0.9
- hsa-miR-185-3p fold change, intracellular ([5]; human, 72 h, 3 µM): 16.3
- hsa-miR-365a-5p fold change, intracellular ([5]; human, 72 h, 3 µM): 0.4

- Cell index (CI) MEC ([2]; hiPSC-CM, 72-hour treatment, lowest concentration causing at least 20% change from baseline): 0.003 µM
- RTCA, MEC (CI) ([2]; hiPSC-CM, change ≥20%, Table 2): 0.003 µM (CI)
- Cell Index MEC ([2]; human, 72 h): 0.003 µM
- Contractility Amplitude MEC ([2]; human, 72 h): 0.003 µM
- Spike Amplitude (SA) MEC ([2]; human, 72 h): 0.003 µM
- hsa-miR-126-3p fold change, culture media ([4]; 0.3 µM, 24h): 0.4
- hsa-miR-208b-3p fold change, culture media ([4]; 0.3 µM, 24h): 0.9
- hsa-miR-[…] change, culture media ([4]; 0.3 µM, 24h): 1.6
- hsa-miR-208b-3p fold change, culture media ([4]; 0.3 µM, 48h): 1.3
- hsa-miR-[…] change, culture media ([4]; 0.3 µM, 48h): 1.4
- hsa-miR-7-5p fold change, culture media ([4]; 0.3 µM, 72 h): 0.5
- hsa-miR-133b fold change, culture media ([4]; 0.3 µM, 72 h): 2.4
- hsa-miR-187-3p fold change, culture media ([4]; 0.3 µM, 72 h): 16.0
- hsa-miR-208b-3p fold change, culture media ([4]; 0.3 µM, 72 h): 2.3
- hsa-miR-[…] change, culture media ([4]; 0.3 µM, 72 h): 0.3
- intracellular miRNA upregulation in hiPSC-CM, in words [5]: smallest fold change
- miRNAs hiPSC-CM pellet, MEC overall [5]: 0.0003 µM
- miRNAs upregulated at the MEC overall (hiPSC-CM pellet) [5]: miR-126-3p
- hsa-miR-7-5p fold change, intracellular ([5]; 0.3 µM, 72 h): 1.0
- hsa-miR-29a-5p fold change, intracellular ([5]; 0.3 µM, 72 h): 1.0
- hsa-miR-96-5p fold change, intracellular ([5]; 0.3 µM, 72 h): 0.8
- hsa-miR-126-3p fold change, intracellular ([5]; 0.3 µM, 72 h): 1.4
- hsa-miR-133b fold change, intracellular ([5]; 0.3 µM, 72 h): 0.3
- hsa-miR-146b-5p fold change, intracellular ([5]; 0.3 µM, 72 h): 0.3
- hsa-miR-182-5p fold change, intracellular ([5]; 0.3 µM, 72 h): 0.4
- hsa-miR-185-3p fold change, intracellular ([5]; 0.3 µM, 72 h): 1.1
- hsa-miR-187-3p fold change, intracellular ([5]; 0.3 µM, 72 h): 0.7
- hsa-miR-208b-3p fold change, intracellular ([5]; 0.3 µM, 72 h): 2.2
- intracellular miRNA upregulation in hiPSC-CM, in words ([5]; human, 72 h): intracellular miR-208-3p was upregulated
Structure (SMILES): CC[C@]1(O)C[C@H]2CN(CCc3c([nH]c4ccccc34)[C@@](C(=O)OC)(c3cc4c(cc3OC)N(C=O)[C@H]3[C@@](O)(C(=O)OC)[C@H](OC(C)=O)[C@]5(CC)C=CCN6CC[C@]43[C@@H]65)C2)C1 [Vincristine]
- Cmax total ([3]; Supplementary Table 1): 50 nM
- Cmax total ([3]; Table 1): 50 nM
- hsa-miR-133b in culture media, in words ([4]; 24, 48, 72 h, doxorubicin 0.1 μM, arsenic trioxide 0.48 μM, milrinone 3 μM, vincristine 0.3 μM, vinblastine 0.3 μM, erlotinib 7.7 μM): increase that was not statistically significant
- fold induction at 0.0003 µM [5, 6]: 1
- fold induction at 0.003 µM [5, 6]: 1.1
- fold induction at 0.03 µM [5, 6]: 0.9
- fold induction at 0.3 µM [5, 6]: 1
- fold induction at 0.0003 µM [5, 7]: 0.4
- fold induction at 0.003 µM [5, 7]: 0.7
- fold induction at 0.03 µM [5, 7]: 1
- fold induction at 0.3 µM [5, 7]: 1
- fold induction at 0.0003 µM [5, 16]: 0.3
- fold induction at 0.003 µM [5, 16]: 0.6
- fold induction at 0.03 µM [5, 16]: 0.3
- fold induction at 0.3 µM [5, 16]: 0.8
- fold induction at 0.0003 µM [5, 8]: 3.2
- fold induction at 0.003 µM [5, 8]: 1.9
- fold induction at 0.03 µM [5, 8]: 1.3
- fold induction at 0.3 µM [5, 8]: 1.4
- fold induction at 0.0003 µM [5, 9]: 0.3
- fold induction at 0.003 µM [5, 9]: 0.2
- fold induction at 0.03 µM [5, 9]: 0.4
- fold induction at 0.3 µM [5, 9]: 0.3
- fold induction at 0.0003 µM [5, 10]: 1.2
- fold induction at 0.003 µM [5, 10]: 0.7
- fold induction at 0.03 µM [5, 10]: 0.4
- fold induction at 0.3 µM [5, 10]: 0.3
- fold induction at 0.0003 µM [5, 11]: 0.4
- fold induction at 0.003 µM [5, 11]: 0.5
- fold induction at 0.3 µM [5, 11]: 0.4
- fold induction at 0.0003 µM [5, 12]: 1.4
- fold induction at 0.003 µM [5, 12]: 2
- fold induction at 0.03 µM [5, 12]: 1
- fold induction at 0.3 µM [5, 12]: 1.1
- fold induction at 0.0003 µM [5, 13]: 1.3
- fold induction at 0.003 µM [5, 13]: 1.9
- fold induction at 0.03 µM [5, 13]: 1.4
- fold induction at 0.3 µM [5, 13]: 0.7
- fold induction at 0.0003 µM [5, 14]: 0.8
- fold induction at 0.003 µM [5, 14]: 1.3
- fold induction at 0.03 µM [5, 14]: 1.6
- fold induction at 0.3 µM [5, 14]: 2.2
- fold induction at 0.0003 µM [5, 15]: 0.6
- fold induction at 0.003 µM [5, 15]: 1.6
- fold induction at 0.03 µM [5, 15]: 1
